Data from patent US7544805B2 (Chemagis Ltd., priority 2004, dated 2009).

Assays:
[1] = Bulk density of the residue; type: physicochemical; settings: residue after drying
Description: The solution was then freeze dried (lyophilized), producing a residue with a bulk density of 0.061 gram/cm^3.
The solution was then spray-dried, producing a residue with a bulk density of 0.269 gram/cm^3.

[2] = Retention of amorphous character after pressing (powder X-ray diffraction); type: physicochemical; settings: pressed at 10,000 Kg/cm^3 for 1 minute; X-ray diffractogram
Method: X-ray diffraction data were acquired using a PHILIPS X-ray diffractometer model PW1050-70. System description: Kα1=1.54178 Å, voltage 40 kV, current 28 mA, diversion slit=1°, receiving slit=0.2 mm, scattering slit=1° with a Graphite monochromator. Experiment parameters: pattern measured between 2θ=4° and 2θ=30° with 0.05° increments; count time was 0.5 second per increment.
The X-ray analysis of the residue gave a featureless diffractogram with a broad peak centered at 2θ about 22°, showing the residue was amorphous. The residue was pressed at 10,000 Kg/cm^3 for 1 minute.
The residue was then pressed at 10,000 Kg/cm3 for 1 minute.

SMILES: CC(C)(O)c1ccccc1CC[C@@H](SCC1(CC(=O)[O-])CC1)c1cccc(/C=C/c2ccc3ccc(Cl)cc3n2)c1.[Na+] [Reference Example 1, Amorphous Montelukast Sodium, reference compound]
- bulk density [1]: 0.061 gram/cm^3

SMILES: CC(C)(O)c1ccccc1CC[C@@H](SCC1(CC(=O)[O-])CC1)c1cccc(/C=C/c2ccc3ccc(Cl)cc3n2)c1.[Na+] [Example 1, Amorphous Montelukast Sodium]
- bulk density [1]: 0.269 gram/cm^3
- amorphous character after pressing [2]: remained amorphous
